In PubChem BioAssay (NCI):
“And” between values parts separate entries of the source, which are not always exact repeats. Equal values may be shown once.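 Each compound was tested at five concentrations against cells in 96-well plates for 48 hours. GI50: concentration for 50% inhibition of growth. Definition used: TGI = concentration required for complete inhibition of growth.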

Experiments:
Assay in all cases: DTP human tumour cell line panel, 48 h
UACC-257 melanoma = test system: UACC-257 melanoma
HCT-15 colon = test system: HCT-15 colon
MOLT-4 leukemia = test system: MOLT-4 leukemia
M14 melanoma = test system: M14 melanoma
RPMI-8226 leukemia = test system: RPMI-8226 leukemia
OVCAR-8 ovarian = test system: OVCAR-8 ovarian
NCI-H522 lung = test system: NCI-H522 lung
A549 NSCLC = test system: A549 NSCLC
ACHN renal = test system: ACHN renal
UO-31 renal = test system: UO-31 renal

Row | Structure (SMILES) | GI50 (UACC-257 melanoma) | TGI (UACC-257 melanoma) | GI50 (HCT-15 colon) | TGI (HCT-15 colon) | GI50 (MOLT-4 leukemia) | TGI (MOLT-4 leukemia) | GI50 (M14 melanoma) | TGI (M14 melanoma) | GI50 (RPMI-8226 leukemia) | TGI (RPMI-8226 leukemia) | GI50 (OVCAR-8 ovarian) | TGI (OVCAR-8 ovarian) | GI50 (NCI-H522 lung) | TGI (NCI-H522 lung) | GI50 (A549 NSCLC) | TGI (A549 NSCLC) | GI50 (ACHN renal) | TGI (ACHN renal) | GI50 (UO-31 renal) | TGI (UO-31 renal)
1 | Cc1ccc(S(=O)(=O)n2cc([C@@]3(O)C[C@H](CSC#N)OC3=O)c3ccccc32)cc1 | 10.9 µM | 56.4 µM | 13.6 µM | 71.2 µM | 1.71 µM | 4.52 µM | 7.94 µM | 35.9 µM | 2.75 µM | 40.1 µM | 10.2 µM | 22.5 µM | 3.99 µM | 18.1 µM | 29.2 µM | > 100 µM | 11.2 µM | 27.1 µM | 4.62 µM | 19.3 µM
2 | Cc1ccc2oc(=O)c3c(O)c4cccc(OC5OC(C)C6O[C@@H](c7ccccc7)OC6C5OC5OC(C)C(O)C(O)C5O)c4c4oc(=O)c1c2c34 (some centres not stated) | 0.309 µM | 1.82 µM and 2.12 µM | 0.261 µM | 1.5 µM and 5.01 µM | 0.00436 µM and 0.0137 µM | 0.109 µM and 0.161 µM | 0.409 µM | 1.85 µM and 1.64 µM | – | 0.888 µM | 0.0562 µM | 2.74 µM and 1.43 µM | 0.104 µM | 0.294 µM and 1.38 µM | 0.0214 µM | 0.521 µM and 0.924 µM | 0.0559 µM | 1.14 µM and 0.439 µM | 0.4 µM | 1.99 µM and 7.47 µM
3 | CN(C)CCN1C(=O)c2cccc3c(/C=C/CN4C(=O)c5cccc6cccc(c56)C4=O)ccc(c23)C1=O | > 100 µM | > 100 µM | > 100 µM | > 100 µM | > 100 µM | > 100 µM | > 100 µM | > 100 µM | > 100 µM | > 100 µM | 4.21 µM | > 100 µM | > 100 µM | > 100 µM | > 100 µM | > 100 µM | 28.3 µM | > 100 µM | 17.4 µM | 48.2 µM
4 | CC(C)[P+](c1ccccc1)(c1ccccc1)c1ccccc1 | 1.07 µM | 7.06 µM | > 100 µM | > 100 µM | 6.9 µM | > 100 µM | 11.2 µM | > 100 µM | 1.72 µM | 23.6 µM | 4.42 µM | > 100 µM | 2.6 µM | 26.5 µM | 5.07 µM | > 100 µM | 86.8 µM | > 100 µM | > 100 µM | > 100 µM
5 | O=[N+]([O-])c1cc(/C=N\NS(=O)(=O)c2ccc(Cl)cc2)c(O)c([N+](=O)[O-])c1 | – | > 100 µM | – | 53.1 µM | – | 86 µM | – | 99.6 µM | – | 80.9 µM | – | 64.5 µM | – | 52.4 µM | – | > 100 µM | – | > 100 µM | – | > 100 µM
6 | CCc1ccc2oc(=O)ccc2c1 | – | > 100 µM | – | > 100 µM | – | > 100 µM | – | > 100 µM | – | > 100 µM | – | > 100 µM | – | > 100 µM | – | > 100 µM | – | > 100 µM | – | > 100 µM
7 | COc1cc(/C=C/C(=O)CC(=O)/C=C/c2cc(OC)c(O)c(OC)c2)cc(OC)c1O | 23.5 µM | 25 µM and > 100 µM | – | > 25 µM and 90.4 µM | 5.1 µM | 25 µM and 84.4 µM | 10.4 µM | 25 µM and 28 µM | – | 30.8 µM | 18 µM | 25 µM and 61.3 µM | 3.75 µM | 15 µM and 14 µM | 16.6 µM | 25 µM and > 100 µM | 42.2 µM | 25 µM and > 100 µM | 41.2 µM | > 100 µM
8 | COc1ccc(CSC2=C(C#N)C(=O)NC3(CCCCC3)S2)cc1 | – | > 100 µM | – | > 100 µM | – | > 100 µM | – | > 100 µM | – | > 100 µM | – | > 100 µM | – | 97.2 µM | – | > 100 µM | – | > 100 µM | – | > 100 µM
9 | Cc1cc(Cl)cc2c1NC(=O)C2(O)CC(=O)c1ccc(Br)cc1 (configuration not stated) | – | > 100 µM | – | > 100 µM | – | 46.5 µM | – | > 100 µM | – | > 100 µM | – | > 100 µM | – | > 100 µM | – | > 100 µM | – | > 100 µM | – | > 100 µM
10 | CCCC(O)c1cn(-c2cccc(S(=O)(=O)O)c2)nn1 (configuration not stated) | – | > 100 µM | – | > 100 µM | – | > 100 µM | – | > 100 µM | – | > 100 µM | – | > 100 µM | – | > 100 µM | – | > 100 µM | – | > 100 µM | – | > 100 µM
11 | CC(/C=C/C(=O)c1sc(C(N)=S)nc1C)=C\c1ccccc1 | – | > 100 µM | – | > 100 µM | – | > 100 µM | – | > 100 µM | – | 44.6 µM | – | > 100 µM | – | > 100 µM | – | > 100 µM | – | > 100 µM | – | > 100 µM
12 | COc1ccc(NC(=O)CC(=O)N/N=C(\C)c2cc3ccccc3oc2=O)cc1 | – | > 100 µM | – | > 100 µM | – | > 100 µM | – | > 100 µM | – | > 100 µM | – | > 100 µM | – | > 100 µM | – | > 100 µM | – | > 100 µM | – | > 100 µM
13 | CCCCNS(=O)(=O)c1ccc(-c2ccc3c(c2)-c2ccc(S(=O)(=O)NCCCC)cc2S3(=O)=O)cc1 | – | > 100 µM | – | > 100 µM | – | > 100 µM | – | 53.7 µM | – | > 100 µM | – | 24.9 µM | – | 66.2 µM | – | 57.3 µM | – | > 100 µM | – | > 100 µM
